Assay [1] concerns rats pretreated with LPS infused into the unilateral striatum. As to the kind of experiment: Inhibitory effect on the apomorphine-induced circling behavior in rats pretreated with LPS infused into the unilateral striatum. The following applies: male Wistar rats; i.p. 0.2 ml per 100 g, 30 minutes before LPS infusion and 3 and 24 hours after; apomorphine 1 mg/kg s.c. 7-8 days postoperatively; 30-minute count. The class given is in vivo, rat. As to the method:
Inhibitory effect on the apomorphine -induced circling behavior in rats pretreated with LPS infused into the unilateral striatum Male Wistar rats (8-9 week old) weighing 250-280 g at the operation for LPS infusion were submitted to this experiment.. Throughout the experimental period, the animals were group-fed in a vivarium controlled at 24±1° C. and 55±1% R.H., with a light-dark cycle of 12 hr (7:00-19:00 ON) and free access to food (Clea Japan, Inc., CE-2 solid pellets) and water (tap water). Under pentobarbital (50 mg/kg, i.p.) anesthesia, the rat's head was immobilized in David Kopf's brain stereotaxic apparatus for small animal use and with reference to Pellegrino & Cushman's brain atlas, a 30 Gauge stainless steel needle was indwelled in the unilateral striatum (A8.2, L2.8, H4.3). The infusion volume of LPS was set at 5 μg. LPS was dissolved in 1 μl of a phosphate-buffered physiological saline solution (PBS, pH 7.2) and the solution was infused gradually at a speed of 0.2 μl/min. The infusion needle was kept in position till 3 minutes following infusion and withdrawn only after sufficient diffusion of the drug solution had taken place. After 7-8 days postoperatively, 1 mg/kg of apomorphine was administered subcutaneously and the number of induced circling behavior during a 30-minute period immediately following administration were determined with an automatic counter. […]

In assay [2] the test system is rat mixed cerebral cell culture. As to the kind of experiment: Neutralizing effect on lipopolysaccharide (LPS)-induced cytotoxicity in a rat mixed cerebral cell culture system (LIC assay). The class given is cell-based. The settings on record: neonatal rat mixed cerebral cells, 4 to 5 days incubation, MTT, concentration giving 50% recovery rate, read-out: ED50 value. As to the method: Neutralizing effect on lipopolysaccharide (LPS)--induced cytotoxicity in a rat mixed cerebral cell culture system (LIC assay)
LPS, a substance known to activate glial cells (astrocytes, microglia), was added to a rat mixed cerebral cell culture system and the compounds which would neutralize the cytotoxicity induced by LPS were screened by the following method.
(1) Neonatal rat mixed cerebral cell culture
From neonatal Crj:CD (SD) rats (1-3 day old, Charles-River Japan, Ltd), the brains were isolated and placed in ice-cooled D-MEM/10% FCS (Dulbecco's cell culture minimal essential medium supplemented with 10% of fetal calf serum, 100 units/ml of penicillin and 100 gg/ml of streptomycin). Then, mixed cerebral cell culture were treated in the following steps. Incidentally stating, ice-cooled D-MEM/10%FCS was used as the medium.
1. The cerebrum was separated from the enucleated brain and the meninges was removed under a stereoscopic microscope.
2. The cerebrums were placed in a nylon-mesh (100-200 μm) bag for filtration with the aid of a rubber policeman.
3. Using ice-cooled D-MEM/10% FCS, the cells were washed three times (1,000 rpm, 8 min.). Then, this cell suspension was subjected to filtration through a cell strainer (40 μm mesh, Falcon 2340) and the number of viable cells was counted by the trypan blue method.
4. The cells were seeded in a tissue-culture flask (96-well microtiter plate, Nunc) at a cell density of 1×10^5 cells/100 μl/well).
5. One week later, 100 μl/well of D-MEM/10% FCS was added.
6. The plate was further incubated for about 1 to 2 weeks and the neutralizing activity of the test compounds was evaluated by the following method.
(2) Evaluation of neutralizing activity
1. Following the rat mixed cerebral cell culture in (1) above (after 2-3 weeks of incubation), the medium was discarded from the respective wells of the 96-well microtiter plate, and 50 μl/well of fresh D-MEM/2% FCS was added.
2. A test sample and LPS (manufactured by Difco Inc., E. coli 011: B4, Bact) of an adequate concentration, 25 μl per well, were respectively added. D-MEM/2% FCS was employed as the medium.
As the test sample, each of the compounds shown in Table 21 was dissolved in DMSO at a concentration of 10^-2 M and the solution was diluted with D-MEM/2% FCS, which was used for assay.
3. After a suitable period (usually 4 to 5 days) of incubation, the degree of cytotoxic effect was assessed by the microscopic observation, and MTT method.
(3) MTT [3-(4,5-dimethylthiazol-2-yl)-2,5-diphenyltetrazolium bromide] method
MTT dissolved in a phosphate-buffered physiological saline solution (5 mg/ml, manufactured by Sigma Chemical Co.,) was added, 10 μl per well. After 4 to 6 hours of incubation (37° C., under 10% carbon dioxide gas phase), 100 μl/well of 0.01N HCl containing 10% SDS was added to thereby dissolve the formed formazan. After complete dissolution, the absorbance (wave-length 540-590 nm) was measure for each well.
The ED50 values were determined by calculating the recovery rates by means of the following equation and plotting the concentrations of compounds giving a recovery rate of 50% on graph paper.
Recovery rate (%)=(C-B)×100/(A-B)
[A: the absorbance at 550 nm of the control well to which only the medium had been was added
B: the absorbance at 550 nm of the well to which LPS had been added
C: the absorbance at 550 nm of the well to which both LPS and the test compound had been added]

The structures appear in SMILES notation.

Data on eight compounds can be found in US5891916A, “Aromatic hydroxamix acid compounds, their production and use” (Takeda Chemical Industries, Ltd., priority 1995, dated 1999).

Turning to `N#CC(CCCCCC(=O)NO)(c1ccccc1)c1ccccc1` [Compound 1, 7-Cyano-7,7-diphenylheptanohydroxamic acid], the “number of induced circling behavior relative to control group” value in assay [1] stood at 41%. Moreover, the EC50 in assay [2] was 10 nM.

For `N#CC(CCCCCC(=O)NO)(c1ccccc1)c1ccc(F)cc1` (stereo not drawn) [Compound 3, 7-cyano-7-(4-fluorophenyl)-7-phenylheptanohydroxamic acid], the EC50 in assay [2] came to 10 nM.

Take `COc1ccccc1C(C#N)(CCCCCC(=O)NO)c1ccccc1` (stereo not drawn) [Compound 4, 7-cyano-7-(2-methoxyphenyl)-7-phenylheptanohydroxamic acid]: the EC50 in assay [2] turned out to be 10 nM.

Turning to `N#CC(CCCCCC(=O)NO)(c1ccccc1)c1nc2ccccc2s1` (stereo not drawn) [Compound 11, 7-(2-benzothiazolyl)-7-cyano-7-phenylheptanohydroxamic acid], the EC50 in assay [2] stood at 10 nM.

Take `N#CC(CCCCCC(=O)NO)(c1ccccc1)c1ccc2ccccc2n1` (stereo not drawn) [Compound 12, 7-cyano-7-phenyl-7-(2-quinolyl)heptanohydroxamic acid]: the EC50 in assay [2] is 10 nM. For the compound `CCC(=O)ONC(=O)CCCCCC(C#N)(c1ccccc1)c1ccccc1` [Compound 13, O-Propionyl-7-cyano-7,7-diphenylheptanohydroxamic acid], the EC50 in assay [2] turned out to be 10 nM. Same read-out and setting: for `CCC(=O)ONC(=O)CCCCCC(C#N)(c1ccccc1)c1ccc2ccccc2n1` (stereo not drawn) [Compound 20, O-propionyl-7-cyano-7-phenyl-7-(2-quinolyl)heptanohydroxamic acid] the value was 10 nM; for `N#CC(CCCCCC(=O)NOC(=O)c1ccccc1)(c1ccccc1)c1ccc2ccccc2n1` (stereo not drawn) [Compound 21, O-benzoyl-7-cyano-7-phenyl-7-(2-quinolyl)heptanohydroxamic acid], 10 nM.
